± gives the standard deviation of the averaged measurements.
These compounds were tested on NanoLuc luciferase (NLuc) (assay: normalised percent inhibition of luminescence (vs positive and negative controls); higher = stronger inhibition). Settings: metal salt concentration 1 mM; screening conditions buffer.
Experimental: (§1)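 Concentration-response (>=11 concentrations) of metal salts on purified FLuc, NLuc or RLuc luminescence in screening (SC) or 100 mM HEPES (H) buffer; salt pre-incubated with enzyme 10 min at RT, read 10 min after substrate. Normalised percent inhibition vs plate positive (PTC-124, isradipine, BTS) and DMSO negative controls; triplicate wells.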

Row | Structure (SMILES) | normalised percent inhibition [%]
1 | O=S(=O)([O-])[O-].[Fe+2] [iron(II) sulfate] | 138 ± 2.5
2 | O=[N+]([O-])[O-].O=[N+]([O-])[O-].[Pb+2] [lead(II) nitrate] | 11.5 ± 4.2
3 | O=[N+]([O-])[O-].O=[N+]([O-])[O-].[Zn+2] [zinc nitrate] | 89 ± 11
4 | O=[N+]([O-])[O-].[Ag+] [silver nitrate] | 120 ± 16
5 | CC#N.CC#N.CC#N.CC#N.F[B-](F)(F)F.[Cu+] [tetrakis(acetonitrile)copper(I) tetrafluoroborate] | 159.9 ± 0.92

Same assay, conditions: metal salt concentration 2.5 mM; 100 mM HEPES buffer

Row | Structure (SMILES) | normalised percent inhibition [%]
6 | O=[N+]([O-])[O-].O=[N+]([O-])[O-].[Cd+2] [cadmium nitrate] | 20.6 ± 2.7
7 | [Cl][Sn][Cl] [tin(II) chloride] | -3.02 ± 4.8
8 | O=S(=O)([O-])[O-].[Fe+2] [iron(II) sulfate] | 101 ± 0.26
9 | O.O.O.O.O.O.O.O=S(=O)([O-])[O-].[Mg+2] [magnesium sulfate] | -6.56 ± 2.5
10 | O=[N+]([O-])[O-].[Ag+] [silver nitrate] | 101.97 ± 0.092
11 | CC#N.CC#N.CC#N.CC#N.F[B-](F)(F)F.[Cu+] [tetrakis(acetonitrile)copper(I) tetrafluoroborate] | 101.9 ± 0.13

Same assay, conditions: metal salt concentration 2.5 mM; screening conditions buffer

Row | Structure (SMILES) | normalised percent inhibition [%]
12 | O=[N+]([O-])[O-].O=[N+]([O-])[O-].[Cd+2] [cadmium nitrate] | 93.1 ± 3
13 | [Cl][Sn][Cl] [tin(II) chloride] | 93.83 ± 0.43
14 | O=S(=O)([O-])[O-].[Fe+2] [iron(II) sulfate] | 157.3 ± 1.2
15 | O=[N+]([O-])[O-].O=[N+]([O-])[O-].[Pb+2] [lead(II) nitrate] | 52 ± 1.8
16 | O=[N+]([O-])[O-].O=[N+]([O-])[O-].[Zn+2] [zinc nitrate] | 111 ± 26
17 | O=[N+]([O-])[O-].[Ag+] [silver nitrate] | 134.8 ± 0.48
18 | CC#N.CC#N.CC#N.CC#N.F[B-](F)(F)F.[Cu+] [tetrakis(acetonitrile)copper(I) tetrafluoroborate] | 161.2 ± 0.41

Same assay, conditions: metal salt concentration 5 mM; 100 mM HEPES buffer

Row | Structure (SMILES) | normalised percent inhibition [%]
19 | O=[N+]([O-])[O-].O=[N+]([O-])[O-].[Cd+2] [cadmium nitrate] | 26.5 ± 5.5
20 | [Cl][Sn][Cl] [tin(II) chloride] | 11.3 ± 8.9
21 | O=S(=O)([O-])[O-].[Fe+2] [iron(II) sulfate] | 101.93 ± 0.031
22 | O.O.O.O.O.O.O.O=S(=O)([O-])[O-].[Mg+2] [magnesium sulfate] | -5.03 ± 1.5
23 | O=[N+]([O-])[O-].[Ag+] [silver nitrate] | 102 ± 0.14
24 | CC#N.CC#N.CC#N.CC#N.F[B-](F)(F)F.[Cu+] [tetrakis(acetonitrile)copper(I) tetrafluoroborate] | 101.9 ± 0.11

Same assay, conditions: metal salt concentration 5 mM; screening conditions buffer

Row | Structure (SMILES) | normalised percent inhibition [%]
25 | O=[N+]([O-])[O-].O=[N+]([O-])[O-].[Cd+2] [cadmium nitrate] | 113 ± 4.1
26 | [Cl][Sn][Cl] [tin(II) chloride] | 137.11 ± 0.064
27 | O=S(=O)([O-])[O-].[Fe+2] [iron(II) sulfate] | 158.9 ± 1.2
28 | O=[N+]([O-])[O-].O=[N+]([O-])[O-].[Pb+2] [lead(II) nitrate] | 129 ± 28
29 | O=[N+]([O-])[O-].O=[N+]([O-])[O-].[Zn+2] [zinc nitrate] | 126 ± 30
30 | O=[N+]([O-])[O-].[Ag+] [silver nitrate] | 135.3 ± 0.097
31 | CC#N.CC#N.CC#N.CC#N.F[B-](F)(F)F.[Cu+] [tetrakis(acetonitrile)copper(I) tetrafluoroborate] | 161.65 ± 0.13

What follows are compounds tested on Renilla luciferase (RLuc) in the same assay as above. Settings: metal salt concentration 0.0001 mM; 100 mM HEPES buffer.
Experimental: as §1

Row | Structure (SMILES) | normalised percent inhibition [%]
32 | O=[N+]([O-])[O-].O=[N+]([O-])[O-].[Cd+2] [cadmium nitrate] | -40.7 ± 15
33 | [Cl][Sn][Cl] [tin(II) chloride] | -43.6 ± 17
34 | O=S(=O)([O-])[O-].[Fe+2] [iron(II) sulfate] | 41.8 ± 57
35 | O.O.O.O.O.O.O.O=S(=O)([O-])[O-].[Mg+2] [magnesium sulfate] | -6.9 ± 26
36 | O=[N+]([O-])[O-].[Ag+] [silver nitrate] | 2.89 ± 12
37 | CC#N.CC#N.CC#N.CC#N.F[B-](F)(F)F.[Cu+] [tetrakis(acetonitrile)copper(I) tetrafluoroborate] | -13.8 ± 1.9

Same assay, conditions: metal salt concentration 0.00025 mM; 100 mM HEPES buffer

Row | Structure (SMILES) | normalised percent inhibition [%]
38 | O=[N+]([O-])[O-].O=[N+]([O-])[O-].[Cd+2] [cadmium nitrate] | -15.8 ± 19
39 | [Cl][Sn][Cl] [tin(II) chloride] | -34 ± 13
40 | O=S(=O)([O-])[O-].[Fe+2] [iron(II) sulfate] | -25.1 ± 17
41 | O.O.O.O.O.O.O.O=S(=O)([O-])[O-].[Mg+2] [magnesium sulfate] | -4.68 ± 19
42 | O=[N+]([O-])[O-].[Ag+] [silver nitrate] | -2.96 ± 23
43 | CC#N.CC#N.CC#N.CC#N.F[B-](F)(F)F.[Cu+] [tetrakis(acetonitrile)copper(I) tetrafluoroborate] | 12.4 ± 25

Same assay, conditions: metal salt concentration 0.0005 mM; 100 mM HEPES buffer

Row | Structure (SMILES) | normalised percent inhibition [%]
44 | O=[N+]([O-])[O-].O=[N+]([O-])[O-].[Cd+2] [cadmium nitrate] | -51.3 ± 24
45 | [Cl][Sn][Cl] [tin(II) chloride] | -29.8 ± 5.5
46 | O=S(=O)([O-])[O-].[Fe+2] [iron(II) sulfate] | -18.6 ± 45
47 | O.O.O.O.O.O.O.O=S(=O)([O-])[O-].[Mg+2] [magnesium sulfate] | -11.6 ± 9.2
48 | O=[N+]([O-])[O-].[Ag+] [silver nitrate] | -1.85 ± 16
49 | CC#N.CC#N.CC#N.CC#N.F[B-](F)(F)F.[Cu+] [tetrakis(acetonitrile)copper(I) tetrafluoroborate] | -2.77 ± 18

Same assay, conditions: metal salt concentration 0.001 mM; 100 mM HEPES buffer

Row | Structure (SMILES) | normalised percent inhibition [%]
50 | O=[N+]([O-])[O-].O=[N+]([O-])[O-].[Cd+2] [cadmium nitrate] | -29.6 ± 6
51 | [Cl][Sn][Cl] [tin(II) chloride] | -28.6 ± 18
52 | O=S(=O)([O-])[O-].[Fe+2] [iron(II) sulfate] | -4.06 ± 18
53 | O.O.O.O.O.O.O.O=S(=O)([O-])[O-].[Mg+2] [magnesium sulfate] | -17 ± 8.5
54 | O=[N+]([O-])[O-].[Ag+] [silver nitrate] | -11.8 ± 14
55 | CC#N.CC#N.CC#N.CC#N.F[B-](F)(F)F.[Cu+] [tetrakis(acetonitrile)copper(I) tetrafluoroborate] | -10.8 ± 24

Same assay, conditions: metal salt concentration 0.002 mM; screening conditions buffer

Row | Structure (SMILES) | normalised percent inhibition [%]
56 | O=[N+]([O-])[O-].O=[N+]([O-])[O-].[Cd+2] [cadmium nitrate] | -8.95 ± 8.6

— the supplement of paper PMC11628255, “Interference of metal ions on the bioluminescent signal of firefly, Renilla, and NanoLuc luciferases in high-throughput screening assays” (Frontiers in Chemistry, 2024)
